Values of other authors, collected in patent US20140228287A1, “1-[(3-CYANO-PYRIDIN-2-YL)METHYL]-3-METHYL-7-(2-BUTYN-1-YL)-8-[3-(R)-AMINO-PIPERIDIN-1-YL]-AXANTHINE FOR THE TREATMENT OF A METABOLIC DISORDER OF A PREDOMINANTLY CARNIVOROUS NON-HUMAN ANIMAL” (BOEHRINGER INGELHEIM VETMEDICA GMBH, priority 2010, published 2014).

Key:
GLP-1 = details: after administration to rats and to cats; cited from earlier work
plasma glucagon = details: in vivo; cited from earlier work

## CC#CCn1c(N2CCC[C@@H](N)C2)nc2c1c(=O)n(Cc1nc(C)cc3ccccc13)c(=O)n2C [1-[(3-Methyl-isochinoline-1-yl)methyl]-3-methyl-7-(2-butin-1-yl)-8-((R)-3-amino-piperidine-1-yl)-xanthine]
GLP-1
  effect of GLP-1: the effect of GLP-1 could be prolonged

## N#Cc1ccc(NCCNCC(=O)N2CCC[C@H]2C#N)nc1 [NVP-DPP728]
Plasma glucagon
  plasma glucagon concentration in cats: reduce the plasma glucagon concentration
